Measured values published in ChEMBL document CHEMBL5696442, “Discovery of type II inhibitors of TGFβ-activated kinase 1 (TAK1) and mitogen-activated protein kinase kinase kinase kinase 2 (MAP4K2)” (J Med Chem, 2015).
The source made the active and inactive calls. No cut-off for these calls is given here.

Columns and labels:
[1] = target: Calcium/calmodulin-dependent protein kinase type II subunit gamma (Homo sapiens) (UniProt Q13555); experiment: Inhibition of CaMK2g Lys1 labeling site harbouring TSTQEYAAKIINTK in human Huh-7 cell lysate at 1 uM by KiNativ Profiling analysis relative to control; assay type: subcellular
[2] = target: Cyclin-dependent kinase 17 (Homo sapiens) (UniProt Q00537); experiment: Inhibition of PCTAIRE2 Lys2 labeling site harbouring DLKPQNLLINEKin human Huh-7 cells at 1 uM by KiNativ Profiling analysis relative to control; assay type: cell-based
[3] = target: T1, Serine/threonine-protein kinase Chk1 (Homo sapiens) (UniProt O14757); experiment: Inhibition of CHK1 Lys2 labeling site in human Huh-7 cell lysate at 1 uM by KiNativ Profiling analysis relative to control; assay type: subcellular
T1 sequence (whole entry): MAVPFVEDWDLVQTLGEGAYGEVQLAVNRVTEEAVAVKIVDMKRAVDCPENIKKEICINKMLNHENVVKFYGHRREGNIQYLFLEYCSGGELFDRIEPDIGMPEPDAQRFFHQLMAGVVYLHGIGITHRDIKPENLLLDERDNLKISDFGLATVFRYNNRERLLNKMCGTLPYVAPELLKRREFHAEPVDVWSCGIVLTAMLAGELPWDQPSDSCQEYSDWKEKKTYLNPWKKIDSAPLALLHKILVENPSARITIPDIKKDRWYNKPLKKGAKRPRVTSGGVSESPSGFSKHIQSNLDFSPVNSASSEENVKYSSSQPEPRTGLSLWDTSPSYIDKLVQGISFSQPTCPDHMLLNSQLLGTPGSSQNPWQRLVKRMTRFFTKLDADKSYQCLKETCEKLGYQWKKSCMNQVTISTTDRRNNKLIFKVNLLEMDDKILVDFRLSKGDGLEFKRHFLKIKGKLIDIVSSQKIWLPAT

[4] = target: Ephrin type-A receptor 6 (Homo sapiens) (UniProt Q9UF33); experiment: Inhibition of EPHA6 (unknown origin) at 10 uM by Ambit Kinomescan binding assay
[5] = target: Calcium/calmodulin-dependent protein kinase type II subunit delta (Homo sapiens) (UniProt Q13557); experiment: Inhibition of CAMK2D (unknown origin) at 10 uM by Ambit Kinomescan binding assay
[6] = tested on: Receptor-type tyrosine-protein kinase FLT3 (Homo sapiens), P36888 [N841I]; experiment: Inhibition of FLT3 N841I mutant (unknown origin) at 10 uM by Ambit Kinomescan binding assay relative to control
[7] = target: Serine/threonine-protein kinase pim-3 (Homo sapiens) (UniProt Q86V86); experiment: Inhibition of PIM3 (unknown origin) at 10 uM by Ambit Kinomescan binding assay
[8] = Inhibition of […] K2 labeling site in human Huh-7 cells at 1 uM by KiNativ Profiling analysis relative to control; settings: condition cancer
[9] = target: Non-receptor tyrosine-protein kinase TYK2 (Homo sapiens) (UniProt P29597); experiment: Inhibition of TYK2 domain2 ACT labeling site in human A-375 cells at 0.5 uM by KiNativ Profiling analysis relative to control; assay type: cell-based
[10] = target: Cyclin-dependent kinase 8/19 (Homo sapiens) (UniProt P49336+Q9BWU1); experiment: Inhibition of CDK8/11 K2 labeling site in human Huh-7 cells at 10 uM by KiNativ Profiling analysis relative to control; assay type: cell-based
[11] = target: Mitogen-activated protein kinase kinase kinase 20 (Homo sapiens, UniProt Q9NYL2); experiment: Inhibition of ZAK Lys1 labeling site in human A-375 cells at 5 uM by KiNativ Profiling analysis relative to control; assay type: cell-based
Ephrin type-A receptor 2 = Ephrin type-A receptor 2 (Homo sapiens, UniProt P29317); experiment: Inhibition of EphA2 ACT labeling site in human A-375 cells at 0.05 uM by KiNativ Profiling analysis relative to control; assay type: cell-based
[12] = target: Tyrosine-protein kinase Fes/Fps (Homo sapiens, UniProt P07332); experiment: Inhibition of FES (unknown origin) at 1 uM by Ambit Kinomescan binding assay relative to control; values are per cent of control
[13] = target: RAF proto-oncogene serine/threonine-protein kinase (Homo sapiens, UniProt P04049); experiment: Inhibition of RAF1 (unknown origin) at 1 uM by Ambit Kinomescan binding assay relative to control
[14] = target: Tyrosine-protein kinase FRK (Homo sapiens) (UniProt P42685); experiment: Inhibition of FRK (unknown origin) at 1 uM by Ambit Kinomescan binding assay relative to control; values are per cent of control
Sequence of Tyrosine-protein kinase FRK (Homo sapiens) (P42685 whole entry): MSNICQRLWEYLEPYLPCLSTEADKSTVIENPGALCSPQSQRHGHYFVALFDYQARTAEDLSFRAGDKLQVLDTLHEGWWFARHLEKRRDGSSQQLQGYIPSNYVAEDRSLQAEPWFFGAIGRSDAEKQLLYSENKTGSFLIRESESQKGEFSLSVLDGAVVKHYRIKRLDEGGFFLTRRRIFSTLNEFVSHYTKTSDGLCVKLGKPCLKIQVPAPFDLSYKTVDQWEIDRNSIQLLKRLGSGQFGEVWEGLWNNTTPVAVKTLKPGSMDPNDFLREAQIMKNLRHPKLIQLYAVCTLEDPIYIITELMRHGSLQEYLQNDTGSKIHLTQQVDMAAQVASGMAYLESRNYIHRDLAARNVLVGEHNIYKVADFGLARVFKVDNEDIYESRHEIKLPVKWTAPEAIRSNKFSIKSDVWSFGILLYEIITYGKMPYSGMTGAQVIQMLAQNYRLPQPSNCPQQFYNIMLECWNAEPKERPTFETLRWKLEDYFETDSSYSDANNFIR

Sequence of Ephrin type-A receptor 2 (P29317 whole entry): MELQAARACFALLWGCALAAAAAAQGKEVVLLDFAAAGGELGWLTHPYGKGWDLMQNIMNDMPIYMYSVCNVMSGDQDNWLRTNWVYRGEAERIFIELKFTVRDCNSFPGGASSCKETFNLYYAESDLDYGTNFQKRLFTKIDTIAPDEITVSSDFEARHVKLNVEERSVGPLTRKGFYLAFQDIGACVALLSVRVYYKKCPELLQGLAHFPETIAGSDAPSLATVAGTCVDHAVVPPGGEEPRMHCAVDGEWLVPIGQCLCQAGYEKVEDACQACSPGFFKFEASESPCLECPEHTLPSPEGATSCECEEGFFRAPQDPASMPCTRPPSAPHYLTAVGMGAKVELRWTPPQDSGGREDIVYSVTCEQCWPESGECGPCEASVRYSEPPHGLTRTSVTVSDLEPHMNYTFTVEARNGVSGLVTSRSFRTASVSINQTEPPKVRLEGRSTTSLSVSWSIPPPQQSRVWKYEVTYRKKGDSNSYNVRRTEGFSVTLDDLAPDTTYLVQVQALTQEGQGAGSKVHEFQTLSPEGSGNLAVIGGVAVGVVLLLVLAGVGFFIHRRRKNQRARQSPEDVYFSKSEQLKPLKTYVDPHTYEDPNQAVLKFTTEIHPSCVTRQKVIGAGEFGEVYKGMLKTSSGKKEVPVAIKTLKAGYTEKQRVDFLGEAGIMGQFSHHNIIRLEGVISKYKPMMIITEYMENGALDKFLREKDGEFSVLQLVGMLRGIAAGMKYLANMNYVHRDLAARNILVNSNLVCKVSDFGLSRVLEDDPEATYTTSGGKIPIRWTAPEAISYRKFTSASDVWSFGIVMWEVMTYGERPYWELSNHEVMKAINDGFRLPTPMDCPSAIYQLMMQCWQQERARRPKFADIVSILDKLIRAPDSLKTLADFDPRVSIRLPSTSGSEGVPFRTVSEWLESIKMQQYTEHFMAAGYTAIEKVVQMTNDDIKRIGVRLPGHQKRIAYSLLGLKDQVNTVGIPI
Sequence of Ephrin type-A receptor 6 (Homo sapiens) (Q9UF33 whole entry): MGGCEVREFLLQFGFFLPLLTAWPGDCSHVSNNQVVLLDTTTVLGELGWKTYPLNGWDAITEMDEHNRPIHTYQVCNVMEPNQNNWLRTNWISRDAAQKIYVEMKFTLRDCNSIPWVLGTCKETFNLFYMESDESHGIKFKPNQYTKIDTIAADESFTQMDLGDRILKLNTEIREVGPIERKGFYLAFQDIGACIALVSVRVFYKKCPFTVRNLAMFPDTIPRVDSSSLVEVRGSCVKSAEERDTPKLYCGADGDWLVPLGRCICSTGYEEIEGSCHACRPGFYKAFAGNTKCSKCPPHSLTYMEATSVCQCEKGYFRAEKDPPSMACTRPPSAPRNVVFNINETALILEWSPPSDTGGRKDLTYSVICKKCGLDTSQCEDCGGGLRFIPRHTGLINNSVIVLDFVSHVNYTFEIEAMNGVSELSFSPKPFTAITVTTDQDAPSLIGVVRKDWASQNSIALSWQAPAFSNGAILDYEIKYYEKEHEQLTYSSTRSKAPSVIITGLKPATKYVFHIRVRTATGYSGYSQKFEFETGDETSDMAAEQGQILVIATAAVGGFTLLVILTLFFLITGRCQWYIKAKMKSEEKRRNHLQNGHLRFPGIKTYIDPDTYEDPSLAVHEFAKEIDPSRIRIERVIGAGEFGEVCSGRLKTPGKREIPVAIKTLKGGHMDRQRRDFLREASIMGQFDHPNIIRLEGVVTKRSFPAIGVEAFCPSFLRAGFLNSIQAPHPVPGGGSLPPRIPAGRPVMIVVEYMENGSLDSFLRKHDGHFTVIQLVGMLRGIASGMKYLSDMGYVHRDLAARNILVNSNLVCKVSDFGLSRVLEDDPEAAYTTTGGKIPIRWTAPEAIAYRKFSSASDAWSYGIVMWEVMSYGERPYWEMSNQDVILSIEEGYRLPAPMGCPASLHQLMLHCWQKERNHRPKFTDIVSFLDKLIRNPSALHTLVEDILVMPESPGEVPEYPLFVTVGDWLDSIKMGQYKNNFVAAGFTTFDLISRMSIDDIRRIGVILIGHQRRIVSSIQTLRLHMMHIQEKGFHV
Sequence of Calcium/calmodulin-dependent protein kinase type II subunit gamma (Homo sapiens) (Q13555 whole entry): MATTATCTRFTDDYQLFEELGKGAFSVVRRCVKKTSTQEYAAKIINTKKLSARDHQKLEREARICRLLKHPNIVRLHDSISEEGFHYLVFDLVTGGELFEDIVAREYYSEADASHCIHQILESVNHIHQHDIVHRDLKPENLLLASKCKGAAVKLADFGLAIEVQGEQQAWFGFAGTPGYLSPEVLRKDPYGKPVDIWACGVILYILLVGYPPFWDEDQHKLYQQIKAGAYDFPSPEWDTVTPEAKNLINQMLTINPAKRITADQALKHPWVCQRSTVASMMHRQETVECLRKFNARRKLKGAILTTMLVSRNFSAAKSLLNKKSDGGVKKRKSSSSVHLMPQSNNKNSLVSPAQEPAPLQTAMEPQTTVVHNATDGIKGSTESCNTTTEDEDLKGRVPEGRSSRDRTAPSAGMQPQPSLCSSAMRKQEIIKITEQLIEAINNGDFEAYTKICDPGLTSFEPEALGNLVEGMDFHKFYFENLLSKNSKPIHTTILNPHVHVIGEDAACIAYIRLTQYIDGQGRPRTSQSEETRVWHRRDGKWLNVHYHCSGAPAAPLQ
Sequence of Cyclin-dependent kinase 8/19 (Homo sapiens) (P49336 whole entry, looked up): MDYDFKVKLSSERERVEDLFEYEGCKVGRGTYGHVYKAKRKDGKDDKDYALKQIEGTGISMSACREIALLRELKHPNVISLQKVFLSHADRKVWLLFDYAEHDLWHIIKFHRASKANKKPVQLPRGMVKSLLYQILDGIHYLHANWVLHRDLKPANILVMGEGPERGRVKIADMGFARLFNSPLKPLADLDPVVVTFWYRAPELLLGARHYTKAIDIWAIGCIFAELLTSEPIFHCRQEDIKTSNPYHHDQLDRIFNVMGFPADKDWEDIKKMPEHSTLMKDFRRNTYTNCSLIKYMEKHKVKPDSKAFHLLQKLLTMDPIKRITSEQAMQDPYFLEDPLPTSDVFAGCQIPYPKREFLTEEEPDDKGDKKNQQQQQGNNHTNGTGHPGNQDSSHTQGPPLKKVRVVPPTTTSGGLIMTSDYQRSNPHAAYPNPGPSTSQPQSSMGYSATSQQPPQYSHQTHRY
Sequence of Cyclin-dependent kinase 8/19 (Homo sapiens) (Q9BWU1 whole entry, looked up): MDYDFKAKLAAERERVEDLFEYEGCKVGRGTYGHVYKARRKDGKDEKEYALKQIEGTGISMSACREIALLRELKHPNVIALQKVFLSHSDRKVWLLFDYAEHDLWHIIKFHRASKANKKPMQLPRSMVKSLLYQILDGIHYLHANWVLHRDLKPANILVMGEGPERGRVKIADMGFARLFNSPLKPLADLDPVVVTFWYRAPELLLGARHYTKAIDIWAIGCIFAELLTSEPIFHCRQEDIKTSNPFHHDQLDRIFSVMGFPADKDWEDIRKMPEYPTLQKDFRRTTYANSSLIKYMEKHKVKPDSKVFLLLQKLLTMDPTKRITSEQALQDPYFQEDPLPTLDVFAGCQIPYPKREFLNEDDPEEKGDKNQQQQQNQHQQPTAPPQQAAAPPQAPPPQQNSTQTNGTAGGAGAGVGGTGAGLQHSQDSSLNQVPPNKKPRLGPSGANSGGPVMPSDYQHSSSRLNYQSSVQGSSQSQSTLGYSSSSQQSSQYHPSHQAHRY
Sequence of Cyclin-dependent kinase 17 (Homo sapiens) (Q00537 whole entry, looked up): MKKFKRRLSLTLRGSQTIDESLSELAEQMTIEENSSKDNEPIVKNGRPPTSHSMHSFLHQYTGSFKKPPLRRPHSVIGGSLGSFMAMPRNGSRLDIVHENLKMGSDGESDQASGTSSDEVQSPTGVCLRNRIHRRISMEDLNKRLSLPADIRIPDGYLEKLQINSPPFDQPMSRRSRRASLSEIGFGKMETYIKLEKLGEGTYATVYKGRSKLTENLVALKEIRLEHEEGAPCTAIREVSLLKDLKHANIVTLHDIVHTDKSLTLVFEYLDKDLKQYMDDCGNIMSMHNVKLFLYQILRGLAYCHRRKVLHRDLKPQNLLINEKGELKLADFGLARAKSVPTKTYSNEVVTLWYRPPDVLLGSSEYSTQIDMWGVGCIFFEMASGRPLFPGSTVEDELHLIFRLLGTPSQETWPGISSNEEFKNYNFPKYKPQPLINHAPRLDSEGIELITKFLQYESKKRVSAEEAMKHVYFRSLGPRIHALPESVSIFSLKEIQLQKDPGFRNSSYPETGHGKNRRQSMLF

In the case of `CNc1cc(Oc2cc(C(=O)Nc3cc(N4CCN(C)CC4)cc(C(F)(F)F)c3)ccc2C)ncn1`, the inhibition [1] is reported as 6%, the inhibition [2] is reported as -2.1% and the inhibition [3] is reported as -1.1%.
In the case of `CCN1CCN(Cc2ccc(NC(=O)c3ccc(C)c(Oc4ccnc5[nH]ccc45)c3)cc2C(F)(F)F)CC1`, the inhibition [4] is reported as “inactive”, the inhibition [5] is reported as “inactive” and the inhibition [6] is reported as 0%. The inhibition [7] was “inactive”, the inhibition at 1 µM [8] was -16% and the inhibition [9] was -3.5%. For the same compound, the inhibition [10] was 18.3% and the inhibition [11] was 98.1%.
Compound `CCN1CCN(Cc2ccc(NC(=O)c3ccc(C)c(/C=C/c4cnc5[nH]ccc5c4OC)c3)cc2C(F)(F)F)CC1` has an inhibition (Ephrin type-A receptor 2) of 83.7%, a residual activity [12] of 6.8% and an inhibition [13] of 7.8%. It also gave a residual activity [14] of 3.6%.
